Key:
macrophages = test: Macrophage polarization assays with conditioned media from MSA-2-treated cancer cells; format: cell-based
Procedure: (§1) Given mounting evidence on reprograming of macrophages by STING agonists, macrophage polarization assays were carried out. […] Finally, KL, 4T1, and EO771.1mb were inoculated subcutaneously (KL) or orthotopically (4T1 and EO771.1mb) to evaluate the efficacy of RU.521 and MSA-2 combination treatment. Animals were pre-treated with RU.521 to ensure sufficient drug exposure by the time the first MSA-2 dose was administrated and continued RU.521 throughout the treatment course. Animals were treated with MSA-2 when tumors reached ~100 mm3.

[1] = test system: KL, 4T1, and EO771.1mb tumors; test: RU.521 and MSA-2 combination treatment of KL, 4T1 and EO771.1mb tumors in animals; format: in vivo; settings: KL (subcutaneous), 4T1 and EO771.1mb (orthotopic); agent alone
Procedure: as §1

[2] = test system: KL, 4T1, CT26, B16F10 and E0771.1mb tumors; test: MSA-2 treatment of transplanted wild type or Cgas KO tumors; format: in vivo
Source text: To test if loss of tumor cell cGAS activity would sensitize otherwise resistant chromosomally unstable tumors to STING agonists, wild type or Cgas KO cells […] biweekly with MSA-2.

HCC44 = test: Treatment of HCC44 with cGAS inhibitor, STING signaling in response to cGAMP stimulation; format: cell-based, human; settings: HCC44 cells
Source text: Suppression of CIN or cGAS activity restores immunogenic potential of LKB1-deficient NSCLC. In experiments, relief of tonic STING activation via cGAMP could be removed by genetically deleting cGAS. Treatment of HCC44 with a commercially available human-selective cGAS inhibitor (G150) restored STING protein levels and enhanced pTBK1 and pIRF3 in response to cGAMP stimulation, thus, phenocopying genetic cGAS deletion experiments.

[3] = Cgas KO tumors, KL, 4T1, CT26, B16F10, MSA-2 biweekly

`COc1cc2cc(C(=O)CCC(=O)O)sc2cc1OC` [MSA-2] was tested, and the “Arginase 1 (M2-like marker) in macrophages” value (macrophages; conditioned media from KL, 4T1, CT26 and B16F10 cells treated with MSA-2, with inhibition of cGAS in cancer cells) was “reductions of Arginase 1”, the “iNOS (M1-like marker) in macrophages” value (macrophages; conditioned media from MSA-2-treated Cgas KO cells versus wildtype MSA-2-treated cancer cells) was “robust increase in iNOS” and the “tumor growth, single agent” value [1] was “did not significantly hinder tumor growth”. For the same molecule, the “survival of treated animals” value [2, 3] was “extending the survival”, the tumor growth [2, 3] was “significantly slowed the growth” and the survival of animals ([2]; E0771.1mb Cgas KO tumors) was “prolonged survival”. For the same molecule, the tumor growth ([2]; E0771.1mb tumors, both cGAS proficient and deficient) was “grew slightly slower” and the “tumor growth and survival benefit” value ([2]; wildtype tumors) was “comparatively minimal effect”.
For `Nc1ccc(-c2cc(Cl)c(Cl)c3[nH]c4c(c23)CN(C(=O)CO)CC4)cn1` [G150], the STING protein levels (HCC44) was “restored”, the “pIRF3 in response to cGAMP stimulation” value (HCC44; cGAMP stimulation) was “enhanced” and the “pTBK1 in response to cGAMP stimulation” value (HCC44; cGAMP stimulation) was “enhanced”.

— patent US20260285860A1, “INHIBITORS OF cGAS AND USES THEREOF” (The Trustees of Columbia University in the City of New York, priority 2023, published 2026)
